Counter-ions that a name gives are not always drawn. Like-named read-outs stand apart in the source and are kept apart here.
Legend:
[1] = test system: GFP-transfected Plasmodium berghei ANKA strain; experiment: Plasmodium berghei mouse model, standard Peter's four-day test; type: in vivo; conditions: NMRI female mice, oral, 1 mg/kg 4x (once a day for four days); for % Reduction in parasitaemia: parasitaemia 24 h after last dose
Text: Plasmodium species that lead to human malarial infection are essentially unable to infect non-primate animal models. Rodent models as antimalarial drug discovery efficacy models for compound screening have been extensively used and validated for use through the identification of several antimalarial drugs such as mefloquine, and artemisinin derivatives. Such mouse models, including the Plasmodium berghei mouse model are an integral part of the drug discovery and development pathway. […] In particular experimental results have shown that a compound of formula (I) has improved potency, expressed as ED90, the dose required to eradicate 90% of the target infection [ED90 of 0.3-0.1 mg/kg], versus existing anti-malarial drugs.
Methodology. Using the standard Peter's test in NMRI female mice infected with GFP-transfected Plasmodium berghei ANKA strain were used. Test compounds were dosed orally once a day for four days at nine dose levels ([…], 0.03, 0.1, 0.3, 1, 3, 10, 30 mg/kg) and parasitaemia assessed 24 h after the last dose to determine ED90. The test protocol is described in detail Nature, 2004, 430, 900-904, the contents of which are included herein by reference.

[2] = Thermogravimetric analysis (TGA); type: physicochemical; conditions: 10° C./min; example 1A heated to ~120° C., example 2 to ~150° C.
Method: Thermogravimetric Analysis (TGA) of compounds of the invention was conducted at 10° C./min ramping form room temperature to desired temperature in open platinum pans using at TA Instruments Q5000 TGA. The temperature was calibrated using nickel and weight using TA-supplied standard weights and verified against calcium oxalate monohydrate dehydration and decomposition. Typical parameters for TGA are described in Table 5. [table]

[3] = test system: Plasmodium falciparum strain 3D7; experiment: Plasmodium falciparum 3D7 growth inhibition, SYBRgreen fluorescence assay; type: cell-based; conditions: minimum of 3 independent experiments, read-out: EC50 (μM) for Pf 3D7
Method: Parasite cultures and cytotoxicity assay methodology for Plasmodium falciparum. Cultures of the widely-used malaria reference strain of chloroquinine-sensitive Plasmodium falciparum strain 3D7 were maintained in a 5% suspension of human red blood cells cultured in RPMI 1640 medium supplemented with 0.5% Albumax II (available from Gibco Life Technologies, San Diego, Calif.), 12 mM sodium bicarbonate, 0.2 mM hypoxanthine, (pH 7.3), and 20 mg/litre gentamicin at 37° C., in an atmosphere of 1% O2, 3% CO2 with a gas balance of nitrogen. […] Mefloquine was used as a drug control to monitor the quality of the assay (Z′=0.6 to 0.8, where Z′ is a measure of the discrimination between the positive and negative controls on a screen plate). Dose-response curves were determined from a minimum of 3 independent experiments. Compound bioactivity was expressed as EC50, the effective concentration of compound causing 50% parasite death.

[4] = Dynamic vapour sorption (DVS) moisture sorption; type: physicochemical; conditions: for hygroscopicity (DVS): 25° C.; for water uptake (DVS): 80% R.H./25° C.
Method: The moisture sorption of compounds of the invention was measured using a SMS (Surface Measurement Systems) DVS Intrinsic. The relative humidity at 25° C. was calibrated against deliquescence point of LiCl, Mg(NO3)2 and KCl. Parameters for DVS test are listed below. [table]

Plasmodium falciparum = experiment: P. falciparum SCID mouse model; type: in vivo; conditions: preliminary results
Text: Compounds can be further assessed using a murine model of Plasmodium falciparum malaria (the so-called P. falciparum SCID mouse model). The murine Plasmodium falciparum models require the engrafment of mice with human erythrocytes. The use NODscidlL2Rγ^null mice engrafted with human erythrocytes and competent P. falciparum strains have been validated for the preclinincal evaluation of antimalarials. The test protocol is described in detail at Antimicrobial Agents and Chemotherapy, 2009, 53 4533-4536, the contents of which are included herein by reference.

[5] = test system: sporogonic development in the mosquito; experiment: Standard membrane feeding assay (SMFA); type: in vivo; conditions: preliminary results
Text: The standard membrane feeding assay (SMFA) is used to test the potential effects of compounds or drugs on sporogonic development in the mosquito and it is used to asses their potential for malaria transmission blocking in vivo. The test protocol is described in detail at Antimicrobial Agents and Chemotherapy, 2012, 56 3544-3548 and PLoS ONE 7(8): e42821, the contents of which are included herein by reference.

[6] = concentration causing 50% parasite death
[7] = Plasmodium falciparum, 3D7, concentration causing 50% parasite death

Compound	Mean Survival [1]	% Reduction in parasitaemia [1]	EC50 [3, 6]	EC50 [3, 7]	also measured
O=C(NCCN1CCCC1)c1cc(-c2ccc(CN3CCOCC3)cc2)nc2ccc(F)cc12 [Example 1, 6-Fluoro-2-[4-(morpholinomethyl)phenyl]-N-(2-pyrrolidin-1-ylethyl)quinoline-4-carboxamide]	14 days	99.9%	0.001 µM	–	weight loss on heating (TGA) [2]: < 0.1 wt %; solid form change post DVS testing [4]: No solid form change; hygroscopicity (DVS) [4]: non-hygroscopic; water uptake (DVS) [4]: 0.1%; in vivo behaviour in the P. falciparum SCID mouse model (Plasmodium falciparum): desirable in vivo behaviour; in vivo behaviour in standard membrane feeding assay [5]: desirable in vivo behaviour
O=C(NCCN1CCCC1)c1cc(-c2ccc(CN3CCOCC3)cc2)nc2ccc(F)cc12.O=C(O)/C=C/C(=O)O [Example 2, 6-Fluoro-2-[4-(morpholinomethyl)phenyl]-N-(2-pyrrolidin-1-ylethyl)quinoline-4-carboxamide; fumaric acid salt]	–	–	0.007 µM	–	weight loss on heating (TGA) [2]: negligible weight loss; solid form change post DVS testing [4]: No solid form change; hygroscopicity (DVS) [4]: slightly hygroscopic; water uptake (DVS) [4]: ~1.2%
O=C(NCCN1CCCC1)c1cc(-c2ccc(CN3CCOCC3)cc2)nc2ccc(Cl)cc12 [Example 3, 6-chloro-2-[4-(morpholinomethyl)phenyl]-N-(2-pyrrolidin-1-ylethyl)quinoline-4-carboxamide]	–	–	–	0.001 µM	–
O=C(NCCN1CCCC1)c1cc(-c2ccc(CN3CCOCC3)cc2)nc2ccccc12 [Example 4, 2-[4-(morpholinomethyl)phenyl]-N-(2-pyrrolidin-1-ylethyl)quinoline-4-carboxamide]	–	–	0.001 µM	–	–
O=C(NCCN1CCCC1)c1cc(-c2ccc(CN3CCOCC3)cc2)nc2ccccc12 [Example 5, 2-[4-(morpholinomethyl)phenyl]-N-(2-pyrrolidin-1-ylethyl)quinoline-4-carboxamide; fumaric acid salt]	–	–	0.003 µM	–	–
O=C(NCCN1CCCC1)c1cc(-c2ccc(CN3CCOCC3)c(F)c2)nc2ccc(F)cc12 [Example 6, 6-fluoro-2-(3-fluoro-4-(morpholinomethyl)phenyl)-N-(2-(pyrrolidin-1-yl)ethyl)quinoline-4-carboxamide]	11 days	99.8%	–	0.0007 µM	–
O=C(NCCN1CCCC1)c1cc(-c2ccc(CN3CCOCC3)cc2F)nc2ccc(F)cc12 [Example 7, 6-fluoro-2-(2-fluoro-4-(morpholinomethyl)phenyl)-N-(2-(pyrrolidin-1-yl)ethyl)quinoline-4-carboxamide]	11 days	99.9%	–	0.0005 µM	–
O=C(NCCN1CCCC1)c1cc(-c2cc(F)c(CN3CCOCC3)c(F)c2)nc2ccc(F)cc12 [Example 8, 2-(3,5-difluoro-4-(morpholinomethyl)phenyl)-6-fluoro-N-(2-(pyrrolidin-1-yl)ethyl)quinoline-4-carboxamide]	–	–	–	0.004 µM	–
O=C(NCCN1CCCC1)c1cc(-c2ccc(CN3CCS(=O)(=O)CC3)cc2)nc2ccc(F)cc12 [Example 9, 2-(4-((1,1-dioxidothiomorpholino)methyl)phenyl)-6-fluoro-N-(2-(pyrrolidin-1-yl)ethyl)quinoline-4-carboxamide]	7 days	99.0%	–	0.0006 µM	–
O=C(NCCN1CCCC1)c1cc(-c2ccc(CN3CCOCC3)cc2Cl)nc2ccc(F)cc12 [Example 11, 2-(2-chloro-4-(morpholinomethyl)phenyl)-6-fluoro-N-(2-(pyrrolidin-1-yl)ethyl)quinoline-4-carboxamide; fumaric acid salt]	–	–	–	0.003 µM	–

From patent US9115088B2, “Anti-malarial agents” (MERCK PATENT GMBH, priority 2012, dated 2015)
